Columns and labels:
MAGE-A3 TCR = details: read-out: ELISA | EC50 | uM
gp100 TCR = details: read-out: ELISA | EC50 | uM
HIV TCR = details: read-out: ELISA | EC50 | uM
[1] = system: MAGE-A3 TCR / MAGE-A3 pMHC; details: read-out: ELISA | IC50 | uM
[2] = molecular target: HIV pMHC binding to anti-HIV TCR; details: read-out: ELISA | IC50 | uM
Mage-A3 sTCR = assay: kdis (1/s)
Description: Table printed on a drawing sheet, FIG. 4B
Head of the field: kdis (1/s)

Substance	EC50 (MAGE-A3 TCR)	EC50 (HIV TCR)	further results
GGNACEMTYDHTFCDPGGGGS[PEG4]Lys(biotin)- NH2	0.17 µM	–	–
GGHCYDTHSFPMYVCLGGGGS[PEG4]Lys(biotin)-NH2	–	–	EC50 (gp100 TCR): 2.58 µM
GGSNCYSLEPWIYCDTGGGGS[PEG4]Lys(biotin)- NH2	–	0.5 µM	–
GGVTCSLGNVFYLCHDGGGGS[PEG4]Lys(biotin)- NH2	–	0.39 µM	–
GGHCFVSPASGEWWCVGGGGS[PEG4]Lys(biotin)- NH2	0.08 µM	–	IC50 [1]: > 100 µM
GGTFCYFDHGLVNCQWGGGGS[PEG4]Lys(biotin)- NH2	0.5 µM	–	–
GGRRCVDVYDNAFCLIGGGGS[PEG4]Lys(biotin)- NH2	0.25 µM	–	–
GGLCRAVEDMWVTSCMGGGGS[PEG4]Lys(biotin)-NH2	–	–	EC50 (gp100 TCR): 4.04 µM
GGIECYPGFWALDCLYGGGGS[PEG4]Lys(biotin)- NH2	–	0.43 µM	–
GGYDCNYDPSSHTCFYGGGGS[PEG4]Lys(biotin)-NH2	–	–	EC50 (gp100 TCR): 0.12 µM
GGCHWEHVWGAGSFFCGGGGS[PEG4]Lys(biotin)-NH2	–	–	EC50 (gp100 TCR): 1.26 µM
GGATCHLDNVYFLCDIGGGGS[PEG4]Lys(biotin)- NH2	–	0.34 µM	–
GGSLCSLVYDQDFCESGGGGS[PEG4]Lys(biotin)- NH2	0.16 µM	–	–
GGFTCVDGQVYYLCDSGGGGS[PEG4]Lys(biotin)- NH2	–	0.69 µM	–
GGAFCVDTKPGLVCFEGGGGS[PEG4]Lys(biotin)- NH2	–	0.26 µM	IC50 [2]: 112 µM
GGSACSRIYDFAFCHTGGGGS[PEG4]Lys(biotin)- NH2	0.33 µM	–	–
VSCKDVYDEAFCW [Inhibitory peptide 1]	–	–	kdis (Mage-A3 sTCR): 0.0282 s⁻¹
GGESCQSVYDSSFCYDGGGGS[PEG4]Lys(biotin)- NH2	0.1 µM	–	–
GGTTCLEGGVYFLCADGGGGS[PEG4]Lys(biotin)- NH2	–	0.74 µM	–
GGVSCKDVYDEAFCWTGGGGS[PEG4]Lys(biotin)- NH2	0.01 µM	–	IC50 [1]: 0.6 µM
GGQLCPEGYYALMCTDGGGGS[PEG4]Lys(biotin)- NH2	–	0.15 µM	–

Substance	EC50 (MAGE-A3 TCR)	EC50 (HIV TCR)	further results
VRTWFEKFPELVGGGGS[PEG4]Lys(biotin)-NH2	0.67 µM	–	–
GGVICTADGVYWLCDLGGGGS[PEG4]Lys(biotin)- NH2	–	1.29 µM	–
GGQTCIADNVYYLCPEGGGGS[PEG4]Lys(biotin)- NH2	–	0.82 µM	–
GGTSCAQIYDFEFCYSGGGGS[PEG4]Lys(biotin)- NH2	0.17 µM	–	–
GGLVCNDGVVFWLCDSGGGGS[PEG4]Lys(biotin)- NH2	–	0.81 µM	–
GGDICQWVRSMTECSWGGGGS[PEG4]Lys(biotin)-NH2	–	–	EC50 (gp100 TCR): 0.17 µM
GGRICEEVYDWIFCESGGGGS[PEG4]Lys(biotin)- NH2	0.31 µM	–	–
GGCSWIFDGLRYFSKCGGGGS[PEG4]Lys(biotin)- NH2	0.15 µM	–	–
GGGTCFHGNTYFLCEDGGGGS[PEG4]Lys(biotin)- NH2	–	0.29 µM	–
GGVTCNDGKIFYLCSDGGGGS[PEG4]Lys(biotin)- NH2	–	0.63 µM	–
GGLVCNDGNIWWLCEDGGGGS[PEG4]Lys(biotin)- NH2	–	0.88 µM	–
GGYCPLSYSQYDSPCYGGGGS[PEG4]Lys(biotin)-NH2	–	–	EC50 (gp100 TCR): 0.1 µM
GGLTCSSQNIYYLCSDGGGGS[PEG4]Lys(biotin)- NH2	–	0.4 µM	–
GGNQCWEVYDQEFCSLGGGGS[PEG4]Lys(biotin)- NH2	0.05 µM	–	–
LVWGCIWDDMCSGGGGS[PEG4]Lys(biotin)-NH2	0.1 µM	–	IC50 [1]: > 100 µM
GGFCRYVRYEFWDLCMGGGGS[PEG4]Lys(biotin)-NH2	–	–	EC50 (gp100 TCR): 0.54 µM
GGNSCSLVYDKAFCLFGGGGS[PEG4]Lys(biotin)- NH2	0.43 µM	–	–
GGYCYYDIDLDQFLCNGGGGS[PEG4]Lys(biotin)-NH2	–	–	EC50 (gp100 TCR): 0.23 µM
GGMLCNEGYWALSCFLGGGGS[PEG4]Lys(biotin)- NH2	–	0.69 µM	–
GGICYDYMSGYDVVCMGGGGS[PEG4]Lys(biotin)-NH2	–	–	EC50 (gp100 TCR): 0.11 µM

Reference: US12606816B2, “Inhibitory T cell receptor peptides and discovery methods” (JANUX THERAPEUTICS, INC., priority 2018, dated 2026)
